Test results published in patent US20250214990A1, “DIACYLGLYCEROL KINASE (DGK) ALPHA INHIBITORS AND USES THEREOF” (Insilico Medicine IP Limited, priority 2022, published 2025).
pIC50: −log10 of the molar value.

The compounds below were run against T1, DGKA (Homo sapiens, UniProt P23743) (assay: DGKA Inhibition ADP-Glo Assay). Conditions: 40 μM ATP.
T1 construct: purchased SignalChem D21-10BG
Format: biochemical
Protocol: The DGKA inhibition reactions were performed using ADP-Glo assay. The reactions were carried out in 50 mM HEPES, 100 mM NaCl, 10 mM MgCl2, 1 mM CaCl2, 0.005% TritonX-100 and 1 mM DTT as working solution (pH=7.5). 30 nL DMSO solution of each test compound (Top concentration […] with 10 point, 4-fold dilution series for each compound) were transferred to 384 well plate by Echo and 5 μL DGKA (SignalChem, D21-10BG) enzyme working solution at 2× final reaction concentration was added to each well. After incubated at 25° C. for 15 minutes, 5 μL substrate working solution contain 40 μM ATP (Promega, V915B) and 200 µM DLG (SignalChem, D430-59) were added to initiate reaction. After enzymatic reaction at 25° C. for 60 min, ADP Glo assay reagents (Promega, V9102) were added and luminescence was recorded using an EnVision following the instruction of manual. […] The IC50 value was calculated via a regression analysis of the inhibition rate.

T1 sequence (P23743 whole entry): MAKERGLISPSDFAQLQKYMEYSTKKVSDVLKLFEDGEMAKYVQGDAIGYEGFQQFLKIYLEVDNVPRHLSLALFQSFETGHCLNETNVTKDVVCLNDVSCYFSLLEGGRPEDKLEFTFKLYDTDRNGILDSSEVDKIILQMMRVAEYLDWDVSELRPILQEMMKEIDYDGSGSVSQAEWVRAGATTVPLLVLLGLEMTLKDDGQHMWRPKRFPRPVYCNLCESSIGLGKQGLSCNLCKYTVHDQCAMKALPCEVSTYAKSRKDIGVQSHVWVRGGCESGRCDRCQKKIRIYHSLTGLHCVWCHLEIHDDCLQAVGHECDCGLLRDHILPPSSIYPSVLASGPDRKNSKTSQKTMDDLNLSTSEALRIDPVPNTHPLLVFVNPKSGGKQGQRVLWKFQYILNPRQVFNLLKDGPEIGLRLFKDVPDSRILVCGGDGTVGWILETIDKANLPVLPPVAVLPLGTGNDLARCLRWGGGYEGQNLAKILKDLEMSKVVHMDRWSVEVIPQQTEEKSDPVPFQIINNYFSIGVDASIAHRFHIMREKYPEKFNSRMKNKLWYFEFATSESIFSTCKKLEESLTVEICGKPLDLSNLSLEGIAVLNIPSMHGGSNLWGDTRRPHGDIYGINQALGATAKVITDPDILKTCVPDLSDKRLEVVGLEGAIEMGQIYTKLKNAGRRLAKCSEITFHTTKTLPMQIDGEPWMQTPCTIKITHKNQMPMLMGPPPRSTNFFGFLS

SMILES | pIC50
Cn1c(=O)nc(N2CCOCc3c(C#CC4(C(F)(F)F)CC4)cccc32)c2nc(C#N)ccc21 [Example 8] | > 9.00
Cn1c(=O)nc(N2CCOCc3c(C#CC4(C(F)(F)F)CC4)cccc32)c2cc(C#N)c(OCCCO)cc21 [Example 28, 7-(3-hydroxypropoxy)-1-methyl-2-oxo-4-(6-((1-(trifluoromethyl)cyclopropyl)ethynyl)-2,3-dihydrobenzo[e][1,4]oxazepin-1(5H)-yl)-1,2-dihydroquinazoline-6-carbonitrile] | > 9.00
Cn1c(=O)nc(N2CCOCc3c(C#CC4(C(F)(F)F)CC4)cccc32)c2cc(C#N)ccc21 [Example 6, 1-methyl-2-oxo-4-(6-((1-(trifluoromethyl)cyclopropyl)ethynyl)-2,3-dihydrobenzo[e][1,4]oxazepin-1(5H)-yl)-1,2-dihydroquinazoline-6-carbonitrile] | > 9.00
Cn1c(=O)nc(N2CCOCc3c(C#CC4(C(F)(F)F)CC4)cncc32)c2cc(Cl)c(OCCO)cc21 [Example 31, 6-chloro-7-(2-hydroxyethoxy)-1-methyl-4-(6-((1-(trifluoromethyl)cyclopropyl)ethynyl)-2,3-dihydropyrido[3,4-e][1,4]oxazepin-1(5H)-yl)quinazolin-2(1H)-one] | > 9.00
Cn1c(=O)nc(N2CCOCc3c(C#CC4(C(F)(F)F)CC4)cccc32)c2nc(Cl)ccc21 [Example 7, 6-chloro-1-methyl-4-(6-((1-(trifluoromethyl)cyclopropyl)ethynyl)-2,3-dihydrobenzol[e][1,4]oxazepin-1(5H)-yl)pyrido[3,2-d]pyrimidin-2(1H)-one] | > 9.00
COCCOc1cc2c(cc1C#N)c(N1CCOCc3c(C#CC4(C(F)(F)F)CC4)cccc31)nc(=O)n2C [Example 18, 7-(2-methoxyethoxy)-1-methyl-2-oxo-4-(6-((1-(trifluoromethyl)cyclopropyl)ethynyl)-2,3-dihydrobenzo[e][1,4]oxazepin-1(5H)-yl)-1,2-dihydroquinazoline-6-carbonitrile] | > 9.00
Cn1c(=O)nc(N2CCOCc3c(C#CC4CC4)cccc32)c2cc(C#N)c(OCCO)cc21 [Example 47, 4-(6-(cyclopropylethynyl)-2,3-dihydrobenzo[e][1,4]oxazepin-1(5H)-yl)-7-(2-hydroxyethoxy)-1-methyl-2-oxo-1,2-dihydroquinazoline-6-carbonitrile] | > 9.00
Cc1cccc2c1COCCN2c1nc(=O)n(C)c2cc(OCCO)c(Cl)cc12 [Example 38, 6-chloro-7-(2-hydroxyethoxy)-1-methyl-4-(6-methyl-2,3-dihydrobenzo[e][1,4]oxazepin-1(5H)-yl)quinazolin-2(11H)-one] | 8.00 to 9.00

More lines, now with the values ahead:

pIC50 | SMILES
> 9.00 | Cn1c(=O)nc(N2CCOCc3c(C#CC4(C(F)(F)F)CC4)cccc32)c2cc(C#N)c(NCCO)cc21 [Example 16, 7-((2-hydroxyethyl)amino)-1-methyl-2-oxo-4-(6-((1-(trifluoromethyl)cyclopropyl)ethynyl)-2,3-dihydrobenzo[e][1,4]oxazepin-1(5H)-yl)-1,2-dihydroquinazoline-6-carbonitrile]
> 9.00 | Cn1c(=O)nc(N2CCOCc3c(N4CCCC4)cccc32)c2cc(C#N)c(OCCO)cc21 [Example 46, 7-(2-hydroxyethoxy)-1-methyl-2-oxo-4-(6-(pyrrolidin-1-yl)-2,3-dihydrobenzo[e][1,4]oxazepin-1(5H)-yl)-1,2-dihydroquinazoline-6-carbonitrile]
> 9.00 | Cn1c(=O)nc(N2CCOCc3c(C#CC4(C(F)(F)F)CC4)cccc32)c2cc(Cl)c(OCCCO)cc21 [Example 27, 6-chloro-7-(3-hydroxypropoxy)-1-methyl-4-(6-((1-(trifluoromethyl)cyclopropyl)ethynyl)-2,3-dihydrobenzo[e][1,4]oxazepin-1(5H)-yl)quinazolin-2(1H)-one]
